According to patent US20240132492A1, “PYRIDOPYRIMIDINE-BASED COMPOUND AND APPLICATION THEREOF” (JINAN UNIVERSITY, priority 2021, published 2024):

How the values were obtained:
Format in all cases: cell-based
MDA-MB-231 = assay: CCK-8 tumor cell proliferation, MDA-MB-231; details: Homo sapiens, MDA-MB-231 cells, 72 hours
Method: (§1) Tumor cells (see Table 2 to Table 5) were inoculated in 96-well plates in complete culture medium (2000-3000 cells/well). After overnight incubation, the compounds with different concentrations (0.000508 μM-10 μM) were used to treat the cells separately for 72 hours. CCK-8 (Cell Counting Kit 8, Dojindo Laboratories, Kumamoto, Japan) experiment was used to evaluate cell proliferation. GraphPad Prism 5.0 software (La Jolla, CA) was used to calculate the half-maximal inhibitory concentration (IC50) values by fitting the concentration response curve. Each IC50 value was represented as an average value±SD.

AKT2 = target: T1, AKT2 (Homo sapiens, UniProt P31751); assay: Western Blot, degradation of AKT2 protein in H1975-OR cells; details: 1000 nM, 24 hours, maximum degradation rate
T1 construct: AKT1, AKT2, and AKT3 proteins in H1975-OR cells; endogenous in cells; host or cells: H1975-OR (osimertinib-resistant H1975)
T1 sequence (P31751 whole entry): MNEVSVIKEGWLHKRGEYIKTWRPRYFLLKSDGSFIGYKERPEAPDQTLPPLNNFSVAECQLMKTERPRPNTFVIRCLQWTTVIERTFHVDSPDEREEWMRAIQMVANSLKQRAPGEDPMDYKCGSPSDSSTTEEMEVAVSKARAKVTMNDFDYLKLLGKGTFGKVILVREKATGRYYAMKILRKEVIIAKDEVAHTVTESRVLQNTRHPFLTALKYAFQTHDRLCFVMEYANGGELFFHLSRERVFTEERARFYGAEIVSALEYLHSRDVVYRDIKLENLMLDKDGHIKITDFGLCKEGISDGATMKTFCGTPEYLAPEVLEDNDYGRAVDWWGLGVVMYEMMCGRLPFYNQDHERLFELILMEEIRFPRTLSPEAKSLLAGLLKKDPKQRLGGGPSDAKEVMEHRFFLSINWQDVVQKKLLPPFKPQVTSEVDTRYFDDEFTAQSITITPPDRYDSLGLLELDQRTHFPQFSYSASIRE
In short: (§2)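 H1975-OR cells are Osimertinib-resistant H1975, adapted stepwise from 50 nM to 3 μM Osimertinib. Cells were treated with compound for 24 h, lysed, and immunoblotted with ECL detection. Band grayscale density was quantified.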

MDA-MB-453 = assay: CCK-8 tumor cell proliferation, MDA-MB-453; details: Homo sapiens, MDA-MB-453 cells, 72 hours
Method: as §1

HCC1937 = assay: CCK-8 tumor cell proliferation, HCC1937; details: Homo sapiens, HCC1937 cells, 72 hours
Method: as §1

Bel-7402 = assay: CCK-8 tumor cell proliferation, Bel-7402; details: Homo sapiens, Bel-7402 cells, 72 hours
Method: as §1

H1299 = assay: CCK-8 tumor cell proliferation, H1299; details: Homo sapiens, NCI-H1299, H1299 cells, 72 hours
Method: as §1

H1975OR = assay: CCK-8 tumor cell proliferation, H1975OR; details: H1975OR cells (Osimertinib resistant), 72 hours
In short: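 Osimertinib-resistant H1975 cells, selected by raising Osimertinib stepwise from 50 nM to 3 μM, were treated for 72 h with compound at 0.000508–10 μM. Proliferation was read by CCK-8, and IC50 came from fitting the concentration–response curve, given as mean ± SD.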

AKT1/2 = assay: Immunoblotting, AKT1/2 protein levels in other tumor cells (H1975, PC-9, H1299, A549); details: H1975, PC-9, H1299 and A549 cells, different concentrations, 24 hours
Method: (§3) Conventional Western Blot (immunoblotting) was used for detection, as follows: a certain number of H1975-OR cells were planted on a 96 well plate, adherent cultured in an incubator overnight, and added a certain concentration of compound to act for 24 hours. 1×SDS lysis buffer with protease and phosphatase inhibitors was used to lyse cells. Cell lysates were separated by SDS-PAGE and transferred to PVDF membrane. Then, at room temperature, the PCDF membrane was taken out and immersed in a sealing solution (5% BSA TBS solution containing 0.5% Tween-20) for sealing treatment for 1 hour, and then incubated with a specific primary antibody at 4° C. overnight. The imprints were washed with TBST and incubated with horseradish peroxidase (HRP) labeled secondary antibodies at room temperature for 2 hours. Finally, ECL plus fluorescence detection reagent (Thermo Scientific, Waltham, MA) was used for protein development, and the Amersham Imager 600 system (GE, America) was used for photography. The detection results were processed using ImageJ software to obtain the grayscale value G (Density).
(§4) Tumor cells ([…], and A549) was incubated with different concentrations of compound ZX-HYT-11 for 24 hours, and then analyzed the protein levels of AKT1/2/3 using immunoblotting method as described in Embodiment 105.

Huh7 = assay: CCK-8 tumor cell proliferation, Huh7; details: Homo sapiens, Huh-7, Huh7 cells, 72 hours
Method: as §1

H1975 = assay: CCK-8 tumor cell proliferation, H1975; details: Homo sapiens, NCI-H1975, H1975 cells, 72 hours
In short: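 IC50 values, given as mean±SD, come from curve fitting of CCK-8 proliferation data. Cells (2000-3000/well, complete medium) received compounds at 0.000508 μM-10 μM for 72 hours following overnight attachment.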

HCC827 = assay: CCK-8 tumor cell proliferation, HCC827; details: Homo sapiens, HCC827 cells, 72 hours
Method: as §1

BT-549 = assay: CCK-8 tumor cell proliferation, BT-549; details: Homo sapiens, BT-549 cells, 72 hours
Method: as §1

AKT1 = target: T2, AKT1 (Homo sapiens, UniProt P31749); assay: Western Blot, degradation of AKT1 protein in H1975-OR cells; details: 1000 nM, 24 hours, maximum degradation rate
T2 construct: AKT1, AKT2, and AKT3 proteins in H1975-OR cells; endogenous in cells; host or cells: H1975-OR (osimertinib-resistant H1975)
T2 sequence (P31749 whole entry): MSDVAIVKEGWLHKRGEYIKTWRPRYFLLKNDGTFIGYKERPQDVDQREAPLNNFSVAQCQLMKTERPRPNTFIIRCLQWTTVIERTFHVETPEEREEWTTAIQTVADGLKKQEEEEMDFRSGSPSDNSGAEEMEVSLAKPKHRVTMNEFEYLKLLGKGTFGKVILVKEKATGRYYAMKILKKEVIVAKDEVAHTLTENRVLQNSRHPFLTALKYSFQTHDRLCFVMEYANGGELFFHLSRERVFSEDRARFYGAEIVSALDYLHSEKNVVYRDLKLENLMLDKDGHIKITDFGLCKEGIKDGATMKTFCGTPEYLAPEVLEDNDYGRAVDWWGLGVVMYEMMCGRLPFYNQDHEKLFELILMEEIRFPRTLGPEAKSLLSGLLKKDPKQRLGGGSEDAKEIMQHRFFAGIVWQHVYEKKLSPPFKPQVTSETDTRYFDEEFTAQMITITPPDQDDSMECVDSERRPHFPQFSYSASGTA
In short: as §2

A431 = assay: CCK-8 tumor cell proliferation, A431; details: Homo sapiens, A-431, A431 cells, 72 hours
Method: as §1

AKT3 [1] = target: T3, AKT3 (Homo sapiens, UniProt Q9Y243); assay: Immunoblotting, AKT3 protein level in other tumor cells (H1975, PC-9, H1299, A549); design: analyzed the protein levels of AKT1/2/3 using immunoblotting method as described in Embodiment 105; endogenous in cells; host or cells: H1975, PC-9, H1299, A549; details: H1975, PC-9, H1299 and A549 cells, different concentrations, 24 hours
T3 sequence (Q9Y243 whole entry): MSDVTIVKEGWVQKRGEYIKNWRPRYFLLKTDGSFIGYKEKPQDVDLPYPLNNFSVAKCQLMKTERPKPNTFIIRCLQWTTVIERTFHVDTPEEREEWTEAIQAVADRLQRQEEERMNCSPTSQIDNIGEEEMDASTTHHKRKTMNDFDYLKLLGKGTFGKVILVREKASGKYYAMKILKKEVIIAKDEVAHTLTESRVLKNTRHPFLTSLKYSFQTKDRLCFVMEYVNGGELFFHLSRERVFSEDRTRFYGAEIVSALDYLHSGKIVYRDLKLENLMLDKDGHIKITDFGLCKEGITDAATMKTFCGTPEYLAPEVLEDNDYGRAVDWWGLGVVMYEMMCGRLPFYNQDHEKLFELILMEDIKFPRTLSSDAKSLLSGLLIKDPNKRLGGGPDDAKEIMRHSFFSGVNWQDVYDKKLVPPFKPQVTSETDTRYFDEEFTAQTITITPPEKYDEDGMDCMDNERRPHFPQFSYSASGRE
Method: as §3, §4

PC-9 = assay: CCK-8 tumor cell proliferation, PC-9; details: Homo sapiens, PC-9 cells, 72 hours
Method: as §1

AKT3 [2] = target: T3, AKT3; assay: Western Blot, degradation of AKT3 protein in H1975-OR cells; design: endogenous in cells; host or cells: H1975-OR (osimertinib-resistant H1975); details: 1000 nM, 24 hours, maximum degradation rate
In short: as §2

IC50 (MDA-MB-231): 0.0294 µM
Dmax at 1 µM (AKT2): 15.3%
IC50 (MDA-MB-453): > 10 µM
IC50 (HCC1937): > 10 µM
IC50 (Bel-7402): > 10 µM
IC50 (H1299): 0.27 ± 0.0723 µM
IC50 (H1975OR): 0.007 ± 0.0006 µM
IC50 (Huh7): 0.686 µM
IC50 (H1975): 2.39 ± 2 µM
IC50 (HCC827): 0.0932 ± 0.014 µM
IC50 (BT-549): > 10 µM
Dmax at 1 µM (AKT1): 0%
IC50 (A431): 0.0093 ± 0.0004 µM
degradation of AKT3 protein (AKT3 [1]): could selectively degrade AKT3 protein
IC50 (PC-9): 0.0839 ± 0.0135 µM
Dmax at 1 µM (AKT3 [2]): 91.1%
SMILES: COc1cc(N2CCN(CCCCCCCCCCCCNC(=O)CC34CC5CC(CC(C5)C3)C4)CC2)ccc1Nc1ncc2c(C)cc(=O)n(-c3cccc(NC(=O)C4CC4)c3)c2n1 [ZX-HYT-11, N-(3-(2-((4-(4-(12-(2-(((3R, 5R, 7R)-adamantan-1-yl)acetylamino)dodecyl)piperazin-1-yl)-2-methoxyphenyl)amino)-5-methyl-7-oxypyridino [2,3-d]pyrimidin-8 (7H)-yl)phenyl)cyclopropane formamide]
effect on AKT1/2 protein levels (AKT1/2): without affecting AKT1/2
